Holding throughout (assay): AK assay 384-well format, Prestwick library screening
For one assay, the system named is E. faecium. The assay is classed as cell-based, Enterococcus faecium. To be noted: 50 μM final drug concentration; for fold induction at 50 µM: Enterococcus faecium, 3 h.
For assay [1], the system named is S. aureus strain USA300-0114. It is filed as cell-based, Staphylococcus aureus. The conditions noted are these: 50 μM final drug concentration; for fold induction at 50 µM: Staphylococcus aureus, USA300, 3 h.
The test system of the next assay is K. pneumoniae. The assay is classed as cell-based, Klebsiella pneumoniae. The conditions noted are these: 50 μM final drug concentration; for fold induction at 50 µM: Klebsiella pneumoniae, 3 h.
For assay [2], the system named is A. baumannii strain 98-37-09. It is filed as cell-based, Acinetobacter baumannii. The conditions noted are these: 50 μM final drug concentration; for fold induction at 50 µM: Acinetobacter baumannii, 983709, 3 h.
A further assay concerns P. aeruginosa. The assay is classed as cell-based, Pseudomonas aeruginosa. To be noted: 50 μM final drug concentration; for fold induction at 50 µM: Pseudomonas aeruginosa, 3 h.
A further assay has as its system E. cloacae. The assay is classed as cell-based, Enterobacter cloacae. To be noted: 50 μM final drug concentration; for fold induction at 50 µM: Enterobacter cloacae, 3 h.
The subject of another assay is E. coli. The assay is classed as cell-based, Escherichia coli. To be noted: 50 μM final drug concentration; for fold induction at 50 µM: Escherichia coli, 3 h.
The mark [3] stands for this setting: 384-well format, cutoff for positive-scoring molecules 3-fold increase, read-out: AK-based Prestwick Library Screening Results, E. faecium (increase in extracellular AK activity).
[4] abbreviates: 384-well format, cutoff for positive-scoring molecules 3-fold increase, read-out: AK-based Prestwick Library Screening Results, S. aureus (increase in extracellular AK activity).
The mark [5] stands for this setting: 384-well format, cutoff for positive-scoring molecules 3-fold increase, read-out: AK-based Prestwick Library Screening Results, K. pneumoniae (increase in extracellular AK activity).
The mark [6] stands for this setting: 384-well format, cutoff for positive-scoring molecules 3-fold increase, read-out: AK-based Prestwick Library Screening Results, A. baumannii (increase in extracellular AK activity).
Setting [7] is: 384-well format, cutoff for positive-scoring molecules 3-fold increase, read-out: AK-based Prestwick Library Screening Results, P. aeruginosa (increase in extracellular AK activity).
The mark [8] stands for this setting: 384-well format, cutoff for positive-scoring molecules 3-fold increase, read-out: AK-based Prestwick Library Screening Results, E. cloacae (increase in extracellular AK activity).
Where [9] appears, read: 384-well format, cutoff for positive-scoring molecules 3-fold increase, read-out: AK-based Prestwick Library Screening Results, E. coli (increase in extracellular AK activity).

The structures appear in SMILES notation. Structures can show the parent of a compound that is named as a salt. Where two headings read alike, the source gives them in different places.

Turning to `NC12CC3CC(CC(C3)C1)C2.NC12CC3CC(CC(C3)C1)C2.O=C(O)/C=C/C(=O)O` [Adamantamine fumarate], the “AK-based Prestwick Library Screening Results: E. faecium (increase in extracellular AK activity)” value in the assay on E. faecium (planktonic E. faecium, 384-well, cutoff for positive-scoring molecules 3-fold increase) is on record as 0.9. The “AK-based Prestwick Library Screening Results: S. aureus (increase in extracellular AK activity)” value in assay [1] (planktonic S. aureus, 384-well, cutoff for positive-scoring molecules 3-fold increase) was found to be 0.4. The “AK-based Prestwick Library Screening Results: K. pneumoniae (increase in extracellular AK activity)” value in the assay on K. pneumoniae (planktonic K. pneumoniae, 384-well, cutoff for positive-scoring molecules 3-fold increase) amounted to 0.5. The “AK-based Prestwick Library Screening Results: A. baumannii (increase in extracellular AK activity)” value in assay [2] (planktonic A. baumannii, 384-well, cutoff for positive-scoring molecules 3-fold increase) was 0.5. Further, the “AK-based Prestwick Library Screening Results: P. aeruginosa (increase in extracellular AK activity)” value with P. aeruginosa (planktonic P. aeruginosa, 384-well, cutoff for positive-scoring molecules 3-fold increase) is 0.4. For the same molecule, the “AK-based Prestwick Library Screening Results: E. cloacae (increase in extracellular AK activity)” value in the assay on E. cloacae (planktonic E. cloacae, 384-well, cutoff for positive-scoring molecules 3-fold increase) is reported as 0.4. Also, the “AK-based Prestwick Library Screening Results: E. coli (increase in extracellular AK activity)” value in the assay on E. coli (planktonic E. coli, 384-well, cutoff for positive-scoring molecules 3-fold increase) is 0.5.
On to `C[n+]1cc2c3c(ccc2c2ccc4cc5c(cc4c21)OCO5)OCO3` [Sanguinarine], for which the fold induction at 50 µM with E. faecium (planktonic E. faecium, […], read-out: AK-based Prestwick library screening result, E. faecium (fold increase in extracellular AK activity)) is 0.3; in assay [1] (planktonic S. aureus, […], read-out: AK-based Prestwick library screening result, S. aureus (fold increase in extracellular AK activity)) it was 0.1; with K. pneumoniae (planktonic K. pneumoniae, […], read-out: AK-based Prestwick library screening result, K. pneumoniae (fold increase in extracellular AK activity)), 0.2; in assay [2] (planktonic A. baumannii, […], read-out: AK-based Prestwick library screening result, A. baumannii (fold increase in extracellular AK activity)), 0.7; with P. aeruginosa (planktonic P. aeruginosa, […], read-out: AK-based Prestwick library screening result, P. aeruginosa (fold increase in extracellular AK activity)), 0.3; in the assay on E. cloacae (planktonic E. cloacae, […], read-out: AK-based Prestwick library screening result, E. cloacae (fold increase in extracellular AK activity)), 0.9. The fold induction at 50 µM in the assay with E. coli (planktonic E. coli, […], read-out: AK-based Prestwick library screening result, E. coli (fold increase in extracellular AK activity)) came to 0.6.
Take `CC(C)n1c(/C=C/C(O)CC(O)CC(=O)O)c(-c2ccc(F)cc2)c2ccccc21` (centres unmarked) [Fluvastatin sodium salt]: the fold induction at 50 µM was 1 in the assay with E. faecium (cutoff for positive-scoring molecules 3-fold increase, read-out: AK-based Prestwick Library Screening Results, E. faecium (fold increase in extracellular AK activity)); 1 in assay [1] (cutoff for positive-scoring molecules 3-fold increase, read-out: AK-based Prestwick Library Screening Results, S. aureus (fold increase in extracellular AK activity)); 0.9 with K. pneumoniae (cutoff for positive-scoring molecules 3-fold increase, read-out: AK-based Prestwick Library Screening Results, K. pneumoniae (fold increase in extracellular AK activity)); 0.9 in assay [2] (cutoff for positive-scoring molecules 3-fold increase, read-out: AK-based Prestwick Library Screening Results, A. baumannii (fold increase in extracellular AK activity)); 1 in the assay on P. aeruginosa (cutoff for positive-scoring molecules 3-fold increase, read-out: AK-based Prestwick Library Screening Results, P. aeruginosa (fold increase in extracellular AK activity)); 1.7 in the assay on E. cloacae (cutoff for positive-scoring molecules 3-fold increase, read-out: AK-based Prestwick Library Screening Results, E. cloacae (fold increase in extracellular AK activity)). Further, the fold induction at 50 µM in the assay on E. coli (cutoff for positive-scoring molecules 3-fold increase, read-out: AK-based Prestwick Library Screening Results, E. coli (fold increase in extracellular AK activity)) is 1.3.
For `CC(CCc1ccc(O)cc1)NCCc1ccc(O)c(O)c1` (centres unmarked) [Dobutamine hydrochloride], the fold induction at 50 µM in the assay on E. faecium (planktonic E. faecium, cutoff for positive-scoring molecules 3-fold increase, read-out: AK-based Prestwick Library Screening Results, E. faecium (increase in extracellular AK activity)) was determined as 0.8; in assay [1] (planktonic S. aureus, cutoff for positive-scoring molecules 3-fold increase, read-out: AK-based Prestwick Library Screening Results, S. aureus (increase in extracellular AK activity)), 0.1; with K. pneumoniae (planktonic K. pneumoniae, cutoff for positive-scoring molecules 3-fold increase, read-out: AK-based Prestwick Library Screening Results, K. pneumoniae (increase in extracellular AK activity)), 0.8; in assay [2] (planktonic A. baumannii, cutoff for positive-scoring molecules 3-fold increase, read-out: AK-based Prestwick Library Screening Results, A. baumannii (increase in extracellular AK activity)) it was 0.7; with P. aeruginosa (planktonic P. aeruginosa, cutoff for positive-scoring molecules 3-fold increase, read-out: AK-based Prestwick Library Screening Results, P. aeruginosa (increase in extracellular AK activity)), 0.6; in the assay with E. cloacae (planktonic E. cloacae, cutoff for positive-scoring molecules 3-fold increase, read-out: AK-based Prestwick Library Screening Results, E. cloacae (increase in extracellular AK activity)) it was 1.1. Moreover, the fold induction at 50 µM in the assay on E. coli (planktonic E. coli, cutoff for positive-scoring molecules 3-fold increase, read-out: AK-based Prestwick Library Screening Results, E. coli (increase in extracellular AK activity)) is 0.8.
Take `C#C[C@]1(O)CC[C@H]2[C@@H]3CCC4=C(CCC(=O)C4)[C@H]3CC[C@@]21C` [Norethynodrel]: the fold induction at 50 µM in the assay with E. faecium (setting [3]) was 0.9; in assay [1] (setting [4]) it was 0.7; in the assay with K. pneumoniae (setting [5]), 0.7; in assay [2] (setting [6]), 0.7; in the assay on P. aeruginosa (setting [7]), 0.8; with E. cloacae (setting [8]), 1. Further, the fold induction at 50 µM in the assay with E. coli (setting [9]) came to 0.9.
Consider `NC(=O)NC1NC(=O)NC1=O` (centres unmarked) [Allantoin], for which the fold induction at 50 µM in the assay on E. faecium (setting [3]) was found to be 0.7; in assay [1] (setting [4]), 1.4; in the assay with K. pneumoniae (setting [5]), 0.4; in assay [2] (setting [6]), 0.4; in the assay with P. aeruginosa (setting [7]) it was 0.3; in the assay with E. cloacae (setting [8]) it was 0.3. Moreover, in the assay on E. coli (setting [9]), the fold induction at 50 µM is 0.4.
With `Cc1c(C)c2c(c(C)c1O)CCC(C)(C(=O)O)O2` (centres unmarked) [Trolox], the fold induction at 50 µM in the assay with E. faecium (planktonic, cutoff for positive 3-fold increase, read-out: AK-based Prestwick Library Screening Results, E. faecium (fold increase in extracellular AK activity)) came out at 1.1; in assay [1] (planktonic, cutoff for positive 3-fold increase, read-out: AK-based Prestwick Library Screening Results, S. aureus (fold increase in extracellular AK activity)), 1.6; in the assay with K. pneumoniae (planktonic, cutoff for positive 3-fold increase, read-out: AK-based Prestwick Library Screening Results, K. pneumoniae (fold increase in extracellular AK activity)) it was 1.1; in assay [2] (planktonic, cutoff for positive 3-fold increase, read-out: AK-based Prestwick Library Screening Results, A. baumannii (fold increase in extracellular AK activity)), 1.1; in the assay on P. aeruginosa (planktonic, cutoff for positive 3-fold increase, read-out: AK-based Prestwick Library Screening Results, P. aeruginosa (fold increase in extracellular AK activity)), 1.1; with E. cloacae (planktonic, cutoff for positive 3-fold increase, read-out: AK-based Prestwick Library Screening Results, E. cloacae (fold increase in extracellular AK activity)) it was 1.6. In addition, in the assay on E. coli (planktonic, cutoff for positive 3-fold increase, read-out: AK-based Prestwick Library Screening Results, E. coli (fold increase in extracellular AK activity)), the fold induction at 50 µM turned out to be 1.1.
`CCCCN(CCCC)CCCOC(=O)c1ccc(N)cc1` [Butacaine]: the fold induction at 50 µM with E. faecium (planktonic, cutoff for positive-scoring molecules 3-fold increase, read-out: AK-based Prestwick Library Screening Results, E. faecium (fold increase in extracellular AK activity)) worked out at 0.9; in assay [1] (planktonic, cutoff for positive-scoring molecules 3-fold increase, read-out: AK-based Prestwick Library Screening Results, S. aureus (fold increase in extracellular AK activity)) it was 0.8; in the assay on K. pneumoniae (planktonic, cutoff for positive-scoring molecules 3-fold increase, read-out: AK-based Prestwick Library Screening Results, K. pneumoniae (fold increase in extracellular AK activity)), 0.8; in assay [2] (planktonic, cutoff for positive-scoring molecules 3-fold increase, read-out: AK-based Prestwick Library Screening Results, A. baumannii (fold increase in extracellular AK activity)) it was 0.9; in the assay on P. aeruginosa (planktonic, cutoff for positive-scoring molecules 3-fold increase, read-out: AK-based Prestwick Library Screening Results, P. aeruginosa (fold increase in extracellular AK activity)), 1; in the assay with E. cloacae (planktonic, cutoff for positive-scoring molecules 3-fold increase, read-out: AK-based Prestwick Library Screening Results, E. cloacae (fold increase in extracellular AK activity)), 1.4. In the assay on E. coli (planktonic, cutoff for positive-scoring molecules 3-fold increase, read-out: AK-based Prestwick Library Screening Results, E. coli (fold increase in extracellular AK activity)), the fold induction at 50 µM was 0.9.
